# From patent US20200237786A1, “DIAGNOSIS AND TREATMENT OF ENDOMETRIOSIS BY SCREENING FOR L-FORM BACTERIA” (Soft Cell Biological Research, LLC, priority 2017, published 2020)
# Experiments:
# [1] = system: Bacterial strains identified in Example 5; test: Antibiotic sensitivity by diffusion disk test of strains cultured from each subject; format: cell-based
# Description: (§1) The disclosure is based, in part, on the recognition that certain L-form bacteria are sensitive to (e.g., not resistant to treatment with) specific antibiotic agents. In some embodiments, resistance to antibiotic agents is tested by a diffusion tab (diffusion disk) test, for example as described in Reller et al. (2009) Clinical Infectious Diseases, 49(11): 1749-1755. However, the skilled artisan recognizes that additional methods of antibiotic sensitivity testing may also be used.
# (§2) Bacterial strains identified in Example 5 were tested for antibiotic sensitivity by a diffusion disk test. […] Resistance to Oxacillin was also observed in the M. maritypicum samples.
# M. maritypicum = test: Antibiotic sensitivity by diffusion disk test, M. maritypicum; format: cell-based, Microbacterium maritypicum
# Description: as §1, §2
# [2] = strains cultured from subject 1609
# [3] = strains cultured from subject 1642
# [4] = strains cultured from subject 1644
# [5] = strains cultured from subject 3016
# [6] = strains cultured from subject 1538
# [7] = strains cultured from subject 1619
# [8] = strains cultured from subject 1636
# [9] = strains cultured from subject 1842
# [10] = strains cultured from subject 3025
# [11] = strains cultured from subject 3164
# [12] = strains cultured from subject 1545
# [13] = strains cultured from subject 1985
# [14] = strains cultured from subject 1905
compound,measurement,setting,value
CO/N=C(\C(=O)N[C@@H]1C(=O)N2C(C(=O)O)=C(COC(N)=O)CS[C@H]12)c1ccco1 [Cefuroxime],Resistance?,[1]; [2],Cefuroxime
same,Resistance?,[1]; [3],Cefuroxime
same,Most Effective Oral Antibiotic,[1]; [4],Cefuroxime
same,Resistance?,[1]; [5],Cefuroxime
C[C@@H](O)[C@H]1C(=O)N2C(C(=O)O)=C(S[C@@H]3CN[C@H](C(=O)N(C)C)C3)[C@H](C)[C@H]12 [Meropenem],Most Effective IV Antibiotic,[1]; [6],Meropenem
same,Most Effective IV Antibiotic,[1]; [2],Meropenem
same,Most Effective IV Antibiotic,[1]; [7],Meropenem
same,Most Effective IV Antibiotic,[1]; [8],Meropenem
same,Most Effective IV Antibiotic,[1]; [9],Meropenem
same,Most Effective IV Antibiotic,[1]; [10],Meropenem
same,Most Effective IV Antibiotic,[1]; strains cultured from subject 3104,Meropenem
same,Most Effective IV Antibiotic,[1]; [11],Meropenem
Cc1ncc([N+](=O)[O-])n1CCO [Metronidazole],Resistance?,[1]; [6],Metronidazole
same,Resistance?,[1]; [12],"Metronidazile,"
same,Resistance?,[1]; [2],"Metronidazole,"
same,Resistance?,[1]; [7],"Metronidazole,"
same,Resistance?,[1]; [8],"Metronidazole,"
same,Resistance?,[1]; [3],"Metronidazole,"
same,Resistance?,[1]; [4],"Metronidazole,"
same,Resistance?,[1]; strains cultured from subject 1661,"Metronidazole,"
same,Resistance?,[1]; [9],"Metronidazole,"
same,Resistance?,[1]; [13],Metronidazole
same,Resistance?,[1]; [5],"Metronidazole,"
same,Resistance?,[1]; [11],Metronidazole
same,resistance observed for M. maritypicum,M. maritypicum; in the majority of samples,resistance
Cc1onc(-c2ccccc2)c1C(=O)N[C@@H]1C(=O)N2[C@@H]1SC(C)(C)[C@@H]2C(=O)O [Oxacillin],Resistance?,[1]; [12],Oxacillin
same,Resistance?,[1]; [2],Oxaillin
same,Resistance?,[1]; [7],Oxacillin
same,Resistance?,[1]; [8],Oxacillin
same,Resistance?,[1]; [3],Oxacillin
same,Resistance?,[1]; [4],Oxacillin
same,Resistance?,[1]; [9],Oxacillin
same,Resistance?,[1]; [5],Oxacilin
same,Resistance?,[1]; [10],Oxacillin
same,resistance observed in the M. maritypicum samples,M. maritypicum; M. maritypicum samples,Resistance
Amoxiclav,Most Effective Oral Antibiotic,[1]; [6],Amoxiclav
same,Resistance?,[1]; [3],Amoxiclav
same,Most Effective Oral Antibiotic,[1]; strains cultured from subject 1888,Amoxiclav
same,Most Effective Oral Antibiotic,[1]; [14],"Amoxiclav,"
same,Most Effective Oral Antibiotic,[1]; [5],Amoxiclav
same,Most Effective Oral Antibiotic,[1]; [10],Amoxiclav
Penicillin,Most Effective Oral Antibiotic,[1]; [14],Penicillin
same,Resistance?,[1]; [5],Penicillin
Rifapin,Most Effective Oral Antibiotic,[1]; [13],Rifapin
Sulfa-Trimeth,Resistance?,[1]; [12],Sulfa-
same,Resistance?,[1]; [3],"Sulfa-Trimeth,"
same,Resistance?,[1]; [5],"Sulfa-Trimeth,"
